{
  "source": "patent US20210169882A1",
  "about": "“PHARMACEUTICAL COMPOSITION FOR PROTECTING OR MITIGATING RADIATION DAMAGE, AND FOR PREVENTING OR TREATING PULMONARY FIBROSIS” (KOREA INSTITUTE OF RADIOLOGICAL & MEDICAL SCIENCES, priority 2017, published 2021)",
  "key": {"[1]": {"tested_on": "vascular wall in the lung tissue of a mouse animal model irradiated with 90 Gy", "assay": "Inhibition test of GSK3 inhibitor on in vivo vascular damage caused by radiation (vascular wall thickness, H&E staining)", "conditions": "30 mg/kg intraperitoneally one hour before 90 Gy chest irradiation, two weeks after irradiation, compared to the non-treatment group (IR)", "experimental": "(§1) The tissue of a mouse was fixed with 10% neutral formalin for one day, and a paraffin section was made. In order to remove the paraffin around the tissue, the tissue was allowed to react with a xylene solution and 95%, 90%, and 70% ethanol solutions in sequential order for 5 minutes each, and then immersed in a hematoxylin solution for 1 minute to stain the nuclei and then washed under running water for 10 minutes. Thereafter, the cytoplasm was stained by immersing the tissue in an eosin solution for 30 seconds. Thereafter, the tissue was immersed in 50%, 70%, 90%, and 95% ethanol solutions, and a xylene solution in sequential order, followed by dropping one drop of a mounting solution. Then, the tissue was covered with a cover slide and observed under a microscope (Carl Zeiss Vision).\nThe lung tissue of a mouse animal model, in which the chest of the mouse was irradiated in a size of 3 mm with an intensity of 90 Gy, was fixed with 10% formalin, and a paraffin section was made. Thereafter, the tissue was stained with hematoxylin and eosin. Upon observing the tissue with this staining method, the cell nucleus is observed in blue and the cytoplasm in pink. One hour before irradiating the mouse animal model, 30 mg/kg of […] or CHIR-98014 was administered intraperitoneally. […]"}, "[2]": {"tested_on": "lung tissue of bleomycin-injected mouse", "assay": "Inhibition test of GSK3 inhibitor on tissue damage caused by bleomycin (bleomycin-induced pulmonary fibrosis model)", "assay_type": "in vivo", "conditions": "30 mg/kg intraperitoneally one hour before 1.25 U/kg bleomycin into the airway; three weeks after injection; H&E and trichrome staining; compared to the non-treatment group", "experimental": "as §1\nThe tissue of a mouse was fixed with 10% neutral formalin for one day, and a paraffin section was made. In order to remove paraffin around the tissue, the tissue was allowed to react with a xylene solution and 95%, 90%, and 70% ethanol solutions in sequential order for 5 minutes each. For the antigen activation of the tissue, the tissue was immersed in a 0.1 M citric acid solution (pH 6.0) and then boiled for 20 minutes. […]"}, "γH2AX": {"tested_on": "γH2AX", "assay": "Inhibition test of GSK3 inhibitor on DNA damage caused by radiation (γH2AX immunostaining)", "assay_type": "in vivo, mouse", "conditions": "30 mg/kg one hour prior to 90 Gy lung irradiation, compared to the non-treatment group (IR)", "procedure": "The tissue of a mouse was fixed with 10% neutral formalin for one day, and a paraffin section was made. In order to remove paraffin around the tissue, the tissue was immersed in a xylene solution and 100%, 95%, 90%, and 70% ethanol solutions in sequential order. For the antigen activation of the tissue, the tissue was immersed in a 0.1 M citric acid solution (pH 6.0) and boiled for 30 minutes, and then reacted with 3% hydrogen peroxide for 15 minutes. The tissue was allowed to react with γH2AX (abcam), which was diluted in 1:200 ratio in a PBS solution (including phosphate based saline buffer and 0.1% triton x-100), at 4° C. for 16 hours. After washing the tissue with PBS, a secondary antibody conjugated with biotin was diluted in 1:200 ratio and reacted with the tissue at room temperature for 30 minutes. After reacting the tissue with ABC (Avidin biotin complex) at room temperature for 30 minutes and color-developing 3,3′-DAB (3,3′-diaminobenzidine), the tissue was counterstained with hematoxylin. Subsequently, the tissue was immersed in 50%, 70%, 90%, 95%, and 100% ethanol solutions and a xylene solution in sequential order, followed by dropping one drop of a mounting solution. Then, the tissue was covered with a cover slide and observed under a microscope (Carl Zeiss Vision). […]"}, "[3]": {"tested_on": "lung tissue of a mouse animal model irradiated with 90 Gy", "assay": "Inhibition test of GSK3 inhibitor on tissue damage caused by radiation (H&E staining)", "assay_type": "in vivo", "conditions": "30 mg/kg intraperitoneally one hour before 90 Gy chest irradiation, two weeks after irradiation, compared to the non-treatment group (IR)", "procedure": "The tissue of a mouse was fixed with 10% neutral formalin for one day, and a paraffin section was made. In order to remove the paraffin around the tissue, the tissue was allowed to react with a xylene solution and 95%, 90%, and 70% ethanol solutions in sequential order for 5 minutes each, and then immersed in a hematoxylin solution for 1 minute to stain the nuclei and then washed under running water for 10 minutes. Thereafter, the cytoplasm was stained by immersing the tissue in an eosin solution for 30 seconds. Thereafter, the tissue was immersed in 50%, 70%, 90%, and 95% ethanol solutions, and a xylene solution in sequential order, followed by dropping one drop of a mounting solution. Then, the tissue was covered with a cover slide and observed under a microscope (Carl Zeiss Vision). The lung tissue of a mouse animal model, in which the chest of the mouse was irradiated in a size of 3 mm with an intensity of 90 Gy, was fixed with 10% formalin, and a paraffin section was made. Thereafter, tissue inflammatory response and fibrosis were identified by using a hematoxylin and eosin staining method. […] Two weeks after the irradiation, the inflammatory response and fibrosis of the tissue damage site were identified by using a hamatoxylin and eosin staining method."}, "[4]": {"tested_on": "pulmonary vascular endothelial cells of irradiated C57BL/6 mouse lung", "assay": "Pulmonary fibrosis inhibition test in experimental animal model (collagen, trichrome staining)", "assay_type": "in vivo", "conditions": "30 mg/kg intraperitoneally one hour before 90 Gy lung irradiation, compared to the irradiation group (IR)", "procedure": "The tissue of a mouse was fixed with 10% neutral formalin for one day, and a paraffin section was made. In order to remove paraffin around the tissue, the tissue was allowed to react with a xylene solution and 95%, 90%, and 70% ethanol solutions in sequential order for 5 minutes each. For the antigen activation of the tissue, the tissue was immersed in a 0.1 M citric acid solution (pH 6.0) and then boiled for 20 minutes. Subsequently, the tissue was allowed to react with a Bouin's solution for 1 minute, Weigert's hematoxylin for 10 minutes, phoshotunstic/phosphomolydic acid for 10 minutes, aniline blue for 5 minutes, and 1% acetic acid for 1 minute in sequential order. Thereafter, a dehydration process was performed, and then the tissue was covered with a cover glass and observed under a microscope (Carl Zeiss Vision).\nIn order to observe whether a phenomenon of pulmonary fibrosis of vascular endothelial cells is shown as the symptom of pulmonary fibrosis occurred after radiotherapy, the site of the lung of a C57BL/6 mouse was topically irradiated with an intensity of 90 Gy. After excising the lung from the mouse, the cross-section of the aorta of the lung tissue was stained by a trichrome staining method in order to identify collagen which is a protein shown upon fibrosis of the pulmonary vascular endothelial cells."}},
  "data": [
    {"smiles": "Nc1nc(NCCNc2ncc(-c3ncc[nH]3)c(-c3ccc(Cl)cc3Cl)n2)ccc1[N+](=O)[O-]", "note": "[CHIR-98014, N-6-[2-[[4-(2,4-dichlorophenyl)-5-(1H-imidazol-2-yl)-2-pyrimidinyl]amino]ethyl]-3-nitro-2,6-pyridinediamine]", "values": [
      {"measurement": "thickness of the vascular wall", "setting": "[1]", "value": "remarkably reduced"},
      {"measurement": "pathological characteristics (infiltration of inflammatory cells, deposition of collagen, fibrous nodules, interstitial thickening)", "setting": "[2]", "value": "remarkably inhibited"},
      {"measurement": "expression of γH2AX according to the DNA damage", "setting": "γH2AX", "value": "remarkably reduced"},
      {"measurement": "infiltration of the inflammatory cells and the fibrotic matrix around blood vessels", "setting": "[3]", "value": "remarkably reduced"},
      {"measurement": "blue sites of collagen (protein associated with pulmonary fibrosis) in inner wall of the aorta of the lung", "setting": "[4]", "value": "remarkably reduced"}
    ]},
    {"smiles": "Cc1c[nH]c(-c2cnc(NCCNc3ccc(C#N)cn3)nc2-c2ccc(Cl)cc2Cl)n1", "note": "[CHIR-99021, 6-[[2-[[4-(2,4-dichlorophenyl)-5-(5-methyl-1H-imidazol-2-yl)-2-pyrimidinyl]amino]ethyl]amino]-3-pyridinecarbonitrile]", "values": [
      {"measurement": "thickness of the vascular wall", "setting": "[1]", "value": "remarkably reduced"},
      {"measurement": "pathological characteristics (infiltration of inflammatory cells, deposition of collagen, fibrous nodules, interstitial thickening)", "setting": "[2]", "value": "remarkably inhibited"},
      {"measurement": "expression of γH2AX according to the DNA damage", "setting": "γH2AX", "value": "remarkably reduced"},
      {"measurement": "infiltration of the inflammatory cells and the fibrotic matrix around blood vessels", "setting": "[3]", "value": "remarkably reduced"},
      {"measurement": "blue sites of collagen (protein associated with pulmonary fibrosis) in inner wall of the aorta of the lung", "setting": "[4]", "value": "remarkably reduced"}
    ]}
  ]
}
